Measurements reported in US11109611B2, “Compositions and methods that modulate digestibility in a companion animal” (Societe des Produits Nestle SA, priority 2016, dated 2021).

Assays:
Type in all cases: in vivo, canine
Conditions in all cases: plasma after overnight fasting in fifth week of feeding, correlations with P value < 0.01
Canines [1] = experiment: Metabolite correlations with organic matter digestibility (plasma metabolomics)
Description: (§1) 83 Canines were all fed Diet A for 5 weeks, followed by a 1 week transition period and then 15 were fed Diet B for 5 weeks as shown in the Table 1 below. Plasma samples were taken after overnight fasting using EDTA vacutainer tubes during the fifth week of feeding of each diet. After centrifugation, plasma was aliquoted into cryovials and frozen at −80° C.
(§2) Metabolomic analysis was carried out using the following methods by Metabolon Inc. Samples were extracted and split into equal parts for analysis on GC/MS and LC/MS/MS platforms. Proprietary software was used to match ions to an in-house library of standards for metabolite identification and for metabolite quantitation by peak area integration by Metabolon Inc. Mass and retention index are provided in the following tables such that each metabolite can be uniquely identified and individually distinguished.
(§3) At the time of analysis, samples were thawed and extracts prepared to remove protein, dislodge small molecules bound to protein or physically trapped in the precipitated protein matrix, and recover a wide range of chemically diverse metabolites. A separate aliquot of each experimental plasma sample was taken then pooled for the creation of “Client Matrix” (CMTRX) samples. These CMTRX samples were injected throughout the platform run and served as technical replicates, allowing variability in the quantitation of all consistently detected biochemicals to be determined and overall process variability and platform performance to be monitored. Extracts of all experimental and CMTRX samples were split for analysis on the GC/MS and LC/MS/MS platforms.
(§4) The CMTRX technical replicate samples were treated independently throughout the process as if they were client study samples. All process samples (CMTRX and Grob test mixtures of organic components used to assess GC column performance, process blanks, etc.) were spaced evenly among the injections for each day and all client samples were randomly distributed throughout each day's run. Data were collected over multiple platform run days and thus ‘block normalized’ by calculating the median values for each run-day block for each individual compound. […] Missing values (if any) were assumed to be below the level of detection for that biochemical with the instrumentation used and were imputed with the observed minimum for that particular biochemical.
(§5) A number of internal standards were added to each experimental and process standard sample just prior to injection into the mass spectrometers.
Metabolite correlations with organic matter digestibility were determined based on plasma metabolomics (Table 2). […] The metabolite compositions of the two different diets were determined to identify relative levels of specific compounds.

Canines [2] = experiment: Metabolite correlations with dry matter digestibility (plasma metabolomics)
Description: as §1, §2, §3, §4, §5
Metabolite correlations with dry matter digestibility were determined based on plasma metabolomics (Table 6). […] Feeding different levels of these compounds (diet B vs diet A; Table 7), and noting changes in dry matter digestibility (Table 8), served as a validation model. The metabolite compositions of the two different diets were determined to identify relative levels of specific compounds.

Canines [3] = experiment: Metabolite correlations with fiber digestibility (plasma metabolomics)
Description: as §1, §2, §3, §4
A number of internal standards were added to each experimental and process standard sample just prior to injection into the mass spectrometers. A measure of the platform variability (7%) was determined by calculating the median relative standard deviation (RSD) for these internal standards. Because these standards are added to the samples immediately prior to injection into the instrument, this value reflects instrument variation. In addition, the median relative standard deviation (RSD) for the biochemicals that were consistently measured in the CMTRX represents the total variability within the process for the actual experimental samples and the variability in quantitation of the endogenous metabolites within these samples (12%).
589 total metabolites were detected in plasma. […]
Metabolite correlations with fiber digestibility were determined based on plasma metabolomics (Table 10). […] The metabolite compositions of the two different diets were determined in order to identify relative levels of specific compounds.

Compound	Correlation with organic matter digestibility (Canines [1])	Correlation with dry matter digestibility (Canines [2])	Correlation with fiber digestibility (Canines [3])
1-palmitoylplasmenylethanolamine	−0.4149	−0.4127	−0.3651
OC[C@H]1OC[C@H](O)[C@@H](O)[C@@H]1O [1,5-anhydroglucitol (1,5-AG)]	−0.2973	–	–
CCCCCCCCCCCCCCCCC(=O)OC[C@@H](O)COP(=O)(O)OCCN [1-heptadecanoylglycerophosphoethanolamine]	−0.4779	−0.4635	−0.4181
CCCCC/C=C\C/C=C\CCCCCCCC(=O)OCC(O)COP(=O)(O)OCCN (centres unmarked) [1-linoleoylglycerophosphoethanolamine]	−0.2924	–	–
CCCCCCCC/C=C\CCCCCCCC(=O)OCC(O)COP(=O)(O)OCCN (centres unmarked) [1-oleoylglycerophosphoethanolamine]	−0.4678	−0.4501	–
CCCCCCCCCCCCCCCC(=O)OCC(O)CO (centres unmarked) [1-palmitoylglycerol (1-monopalmitin)]	–	–	−0.3548
CCC(N)C(=O)O (centres unmarked) [2-aminobutyrate]	0.4586	0.4535	–
CC(C)(O)C(=O)O [2-hydroxyisobutyrate]	0.3269	0.2975	–
CCCCC/C=C\C/C=C\CCCCCCCC(=O)O[C@H](CO)COP(=O)(O)OCCN [2-linoleoylglycerophosphoethanolamine]	−0.3461	−0.3262	–
CCCCCCCC/C=C\CCCCCCCC(=O)OC(CO)COP(=O)(O)OCCN (centres unmarked) [2-oleoylglycerophosphoethanolamine]	−0.3761	−0.3648	–
CC(O)CC(=O)O (centres unmarked) [3-hydroxybutyrate (BHBA)]	0.4249	0.3858	–
CC(C)C(=O)C(=O)O [3-methyl-2-oxobutyrate]	0.3345	0.3102	–
CCCCC/C=C\C/C=C\C/C=C\C/C=C\CCCCCC(=O)O [adrenate (22:4n6)]	0.4225	0.366	–
Cc1c(C)c2c(c(C)c1O)CC[C@@](C)(CCC[C@H](C)CCC[C@H](C)CCCC(C)C)O2 [alpha-tocopherol]	–	–	−0.3263
OC[C@@H](O)C(O)[C@H](O)CO [arabitol]	−0.3609	−0.369	–
CCCCC/C=C\C/C=C\C/C=C\C/C=C\CCCC(=O)O [arachidonate (20:4n6)]	0.5395	0.4779	–
CC(C)(O)CC(=O)O [beta-hydroxyisovalerate]	0.3342	0.2994	–
N[C@@H](CCC(=O)N[C@@H](CSSC[C@H](N)C(=O)O)C(=O)NCC(=O)O)C(=O)O [cysteine-glutathione disulfide]	−0.5693	−0.5458	–
CCCCC/C=C\C/C=C\CCCCCCCCCC(=O)O [dihomo-linoleate (20:2n6)]	0.5242	0.4696	–

Compound	Correlation with organic matter digestibility (Canines [1])	Correlation with dry matter digestibility (Canines [2])	Correlation with fiber digestibility (Canines [3])
CC/C=C\C/C=C\C/C=C\C/C=C\C/C=C\CCCCCC(=O)O [docosapentaenoate (n3 DPA; 22:5n3)]	0.4157	0.3814	–
CCCCC/C=C\C/C=C\C/C=C\C/C=C\C/C=C\CCC(=O)O [docosapentaenoate (n6 DPA; 22:5n6)]	0.4971	0.4484	–
O=C(O)C(O)CO (centres unmarked) [glycerate]	0.3968	0.3423	–
O=C(O)CO [glycolate (hydroxyacetate)]	0.3449	0.3124	–
CCCCC/C=C\C/C=C\CCCCCCCC(=O)O [linoleate (18:2n6)]	0.287	–	–
CCCCCCCC(=O)O[C@H](CC(=O)O)C[N+](C)(C)C [octanoylcarnitine]	0.3604	0.3264	–
CCCCCCCCCCCCCCCC(=O)O [palmitate (16:0)]	0.3027	0.2862	–
CCCCCC/C=C\CCCCCCCC(=O)O [palmitoleate (16:1n7)]	0.3097	0.3089	–
O=C(O)C1CCCCN1 (centres unmarked) [pipecolate]	0.415	0.3661	–
OC[C@@H](O)[C@@H](O)[C@@H](O)CO [ribitol]	–	–	−0.3122
C[N+]1(C)CCC[C@H]1C(=O)[O-] [stachydrine]	−0.3927	−0.3121	–
CCCCCCCCCCCCCCCCCC(=O)O [stearate (18:0)]	0.2845	–	–
C[n+]1cccc(C(=O)[O-])c1 [trigonelline (N′-methylnicotinate)]	−0.5801	−0.5297	–
arabonate	−0.3117	−0.3013	–
campesterol	−0.3283	−0.3101	–
dihomo-linolenate (20:3n3 or n6)	0.4357	0.3649	–
eicosenoate (20:1n9 or 11)	0.4051	0.3674	–
linolenate [alpha or gamma; (18:3n3 or 6)]	0.3932	0.372	–
threonate	0.3788	0.3492	–
